Measured values taken from paper PMC4508327 (Clinical cancer research : an official journal of the …, 2015).

Assays:
[1] = preclinical; no reference given; cited from earlier work
[2] = system: patients with advanced solid tumors; conditions: human, in vivo
[3] = system: patients with advanced solid tumors; assay: Phase I safety: adverse events
[4] = in vivo
advanced solid tumors = assay: Objective tumor response; type: in vivo, human
QTc interval = type: in vivo, human

## CN(C)C1CCN(C(=O)c2ccc(NC(=O)Nc3ccc(-c4nc(N5CCOCC5)nc(N5CCOCC5)n4)cc3)cc2)CC1 [PF-05212384]
[1]
  effect on cardiac, central nervous system or respiratory function: did not show any significant effect
[2]
  all-cause AE: anemia: 18.2%
  all-cause AE: asthenia: 26%
  all-cause AE: back pain: 19.5%
  all-cause AE: constipation: 23.4%
  all-cause AE: cough: 23.4%
  all-cause AE: decreased appetite: 37.7%
  all-cause AE: diarrhea: 24.7%
  all-cause AE: dyspnea: 19.5%
  all-cause AE: fatigue: 32.5%
  all-cause AE: hyperglycemia: 28.6%
  all-cause AE: increased ALT and AST: 16.9%
  all-cause AE: mucosal inflammation and stomatitis: 59.7%
  all-cause AE: nausea: 55.8%
  all-cause AE: pyrexia: 23.4%
  all-cause AE: rash: 23.4%
  all-cause AE: vomiting: 35.1%
  patients who discontinued due to treatment-related AEs: 3.9%
  treatment-related AE: decreased appetite: 24.7%
  treatment-related AE: fatigue: 24.7%
  treatment-related AE: hyperglycemia: 26%
  treatment-related AE: mucosal inflammation and stomatitis: 58.4%
  treatment-related AE: nausea: 42.9%
  treatment-related AE: vomiting: 24.7%
[2]; iv
  recommended phase 2 dose: 154 mg
[3]; IV once weekly, estimated by modified CRM
  maximum tolerated dose (MTD): 154 mg
[3]; seven disease progression, one colon obstruction, one pneumonia
  deaths on study and within 28 days of last-dose administration: Nine
[4]; human
  accumulation (accumulation ratios for Cmax): no accumulation
  interpatient variability in Cmax and AUC: low to moderate
  terminal T1/2, mean values: 33 to 41 h
[4]
  Cmax and AUC versus dose: appeared to increase proportionally with increasing dose
Advanced solid tumors; 77 treated patients
  patients with long-lasting stable disease (>6 months): Eight
Advanced solid tumors; CR, PR or SD lasting ≥6 months, overall
  clinical benefit response (CBR): 13%
Advanced solid tumors; overall study population, n = 77
  objective tumor response rate: 2.6%
Advanced solid tumors; overall study population, plus one unconfirmed PR
  partial responses (PR): two
QTc interval; based on the lack of a dose-effect relationship
  association with QTc prolongation: likely not associated with QTc prolongation
QTc interval; human, in vivo
  patients with grade 1 QTc prolongation: 5%
  patients with grade 2 QTc prolongation: 5%
QTc interval; in vivo
  patients with grade 3 QTc prolongation: no patients
